US20160355483A1, “COMPOUND BINDING TO PPARG BUT NOT ACTING AS PROMOTER AND PHARMACEUTICAL COMPOSITION FOR TREATING PPARG-RELATED DISEASES CONTAINING SAME AS ACTIVE INGREDIENT” (Hyundai Pharm Co., Ltd., priority 2014, published 2016)

Biological target: T1, PPARG (peroxisome proliferator activated receptor-gamma), GST-PPARG-LBD (Homo sapiens, UniProt P37231)
T1 construct: 15 μL of 5 nM GST-PPARG-LBD and 5 nM Tb-GST-antibody were added; purchased Invitrogen PV4894
T1 sequence (P37231 238-503 limits assumed): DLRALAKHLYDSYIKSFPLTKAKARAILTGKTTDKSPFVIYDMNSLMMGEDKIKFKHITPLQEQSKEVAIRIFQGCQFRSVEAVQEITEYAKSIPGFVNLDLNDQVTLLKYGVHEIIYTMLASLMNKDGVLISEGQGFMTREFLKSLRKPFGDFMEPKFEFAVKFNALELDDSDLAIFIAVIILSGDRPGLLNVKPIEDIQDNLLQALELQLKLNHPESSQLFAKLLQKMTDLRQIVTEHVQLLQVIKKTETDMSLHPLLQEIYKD
Experiment: LanthaScreen TR-FRET PPARG Competitive Binding Assay
Set-up: key: “+” indicates the degree of the binding activity, and as the number of “+” increases, the binding activity is stronger; ++: “+” indicates the degree of the binding activity, and as the number of “+” increases, the binding activity is stronger; +++: “+” indicates the degree of the binding activity, and as the number of “+” increases, the binding activity is stronger; ++++: “+” indicates the degree of the binding activity, and as the number of “+” increases, the binding activity is stronger
Settings: degree of binding activity
Method: The following experiment was performed to evaluate the PPARG (peroxisome proliferator activated receptor-gamma) binding capacity and transcriptional activity of the compounds prepared in the examples of the invention. For the experiment, LanthaScreen™ TR-FRET PPARG Competitive Binding Assay Kit (PV4894, Invitrogen) was used according to the manufacturer's instruction. […] The mixture was loaded in a 384-well plate (Greiner, 784075) by 20 μL per well, followed by reaction at room temperature for 1 hour. Upon completion of the reaction, fluorescence value was measured by using Flexstation 3 (Molecular Devices) with time-resolved fluorescence (RFU) mode (excitation 1: 340 nm, emission 1: 518 nm, excitation 2: 340 nm, emission 2: 488 nm, integration delay 50 μs, integration 400 μs). The results were calculated by using 518 nm RFUs/488 nm RFUs ratio. The activity of the compounds of the invention was compared with that of the vehicle, which was calculated by ratio according to the formula [100%−compound of the example ratio/vehicle ratio]. At this time, the binding activity ratio to rosiglitazone was compared.

Row | Binding assay (1 μLM) | SMILES
1 | +++ | C[C@H](NC(=O)c1ccc2c(c1)CCCN2Cc1ccc(-c2ccccc2C(N)=O)cc1)c1cccc(C(F)(F)F)c1 [Example 47, (S)-1-((2′-carbamoyl-[1,1′-biphenyl]-4-yl)methyl)-N-(1-(3-(trifluoromethyl)phenyl)ethyl)-1,2,3,4-tetrahydroquinoline-6-carboxamide]
2 | + | NC(=O)c1ccccc1-c1ccc(CN2CCCc3cc(C(=O)NCc4ccncc4)ccc32)cc1 [Example 48, 1-((2′-carbamoyl-[1,1′-biphenyl]-4-yl)methyl)-N-(pyridine-4-ylmethyl)-1,2,3,4-tetrahydroquinoline-6-carboxamide]
3 | +++ | Cc1ccc([C@H](C)NC(=O)c2ccc3c(c2)CCCN3Cc2ccc(-c3ccccc3C(N)=O)cc2)cc1F [Example 49, (S)-1-((2′-carbamoyl-[1,1′-biphenyl]-4-yl)methyl)-N-(1-(3-fluoro-4-methylphenyl)ethyl)-1,2,3,4-tetrahydroquinoline-6-carboxamide]
4 | +++ | NC(=O)c1ccccc1-c1ccc(CN2CCCc3cc(C(=O)NCc4ccccc4)ccc32)cc1 [Example 50, N-benzyl-1-((2′-carbamoyl-[1,1′-biphenyl]-4-yl)methyl)-1,2,3,4-tetrahydroquinoline-6-carboxamide]
5 | +++ | NC(=O)c1ccccc1-c1ccc(CN2CCCc3cc(C(=O)NCc4ccccc4Br)ccc32)cc1 [Example 51, N-(2-bromobenzyl)-1-((2′-carbamoyl-[1,1′-biphenyl]-4-yl)methyl)-1,2,3,4-tetrahydroquinoline-6-carboxamide]
6 | +++ | NC(=O)c1ccccc1-c1ccc(CN2CCCc3cc(C(=O)NCc4ccc5c(c4)OCCO5)ccc32)cc1 [Example 52, 1-((2′-carbamoyl-[1,1′-biphenyl]-4-yl)methyl)-N-((2,3-dihydrobenzo[b][1,4]dioxin-6-yl)methyl)-1,2,3,4-tetrahydroquinoline-6-carboxamide]
7 | +++ | NC(=O)c1ccccc1-c1ccc(CN2CCCc3cc(C(=O)NCc4ccc(Br)cc4)ccc32)cc1 [Example 53, N-(4-bromobenzyl)-1-((2′-carbamoyl-[1,1′-biphenyl]-4-yl)methyl)-1,2,3,4-tetrahydroquinoline-6-carboxamide]
8 | +++ | NC(=O)c1ccccc1-c1ccc(CN2CCCc3cc(C(=O)NCc4cccc(OC(F)(F)F)c4)ccc32)cc1 [Example 54, 1-((2′-carbamoyl-[1,1′-biphenyl]-4-yl)methyl)-N-(3-(trifluoromethoxy)benzyl)-1,2,3,4-tetrahydroquinoline-6-carboxamide]
9 | ++ | C[C@H](NC(=O)c1ccc2c(c1)OCCN2Cc1ccc(-c2ccccc2C(N)=O)cc1)c1ccccc1 [Example 59, (S)-4-((2′-carbamoyl-[1,1′-biphenyl]-4-yl)methyl)-N-(1-phenylethyl)-3,4-dihydro-2H-benzo[b][1, 4]oxazine-7-carboxamide]
10 | ++ | C[C@H](NC(=O)c1ccc2c(c1)OCCN2Cc1ccc(-c2ccccc2C(=O)O)cc1)c1ccc(Br)cc1 [Example 61, (S)-4′-((7-((1-(4-bromophenyl)ethyl)carbamoyl)-2H-benzo[b][1,4]oxazine-4(3H)-yl)methyl)-[1,1′-biphenyl]-2-carboxylic acid]
11 | +++ | CC[C@H](NC(=O)c1ccc2c(c1)OCCN2Cc1ccc(-c2ccccc2C(=O)O)cc1)c1ccccc1 [Example 62, (S)-4′-((7-((1-phenylpropyl)carbamoyl)-2H-benzo[b][1,4]oxazine-4(3H)-yl)methyl)-[1,1′-biphenyl]-2-carboxylic acid]
12 | + | C[C@H](NC(=O)c1ccc2c(c1)OCCN2Cc1ccc(-c2ccccc2C(=O)O)cc1)c1ccc(F)cc1 [Example 63, (S)-4′-((7-((1-(4-fluorophenyl)ethyl)carbamoyl)-2H-benzo[b][1,4]oxazine-4(3H)-yl)methyl)-[1,1′-biphenyl]-2-carboxylic acid]
13 | + | C[C@H](NC(=O)c1ccc2c(c1)OCCN2Cc1ccc(-c2ccccc2C(=O)O)cc1)c1ccc(Cl)cc1 [Example 64, (S)-4′-((7-((1-(4-chlorophenyl)ethyl)carbamoyl)-2H-benzo[b][1,4]oxazine-4(3H)-yl)methyl)-[1,1′-biphenyl]-2-carboxylic acid]
14 | ++ | C[C@H](NC(=O)c1ccc2c(c1)OCCN2Cc1ccc(-c2ccccc2C(=O)O)cc1)c1cccc(Cl)c1 [Example 65, (S)-4′-((7-((1-(3-chlorophenyl)ethyl)carbamoyl)-2H-benzo[b][1,4]oxazine-4(3H)-yl)methyl)-[1,1′-biphenyl]-2-carboxylic acid]
15 | + | O=C(NCc1ccc([N+](=O)[O-])cc1)c1ccc2c(c1)OCCN2Cc1ccc(-c2ccccc2C(=O)O)cc1 [Example 66, 4′-((7-((4-nitrobenzyl)carbamoyl)-2H-benzo[b][1,4]oxazine-4(3H)-yl)methyl)-[1,1′-biphenyl]-2-carboxylic acid]
16 | ++ | O=C(NCc1ccccc1)c1ccc2c(c1)OCCN2Cc1ccc(-c2ccccc2C(=O)O)cc1 [Example 67, 4′-((7-(benzylcarbamoyl)-2H-benzo[b][1,4]oxazine-4(38)-yl)methyl)-[1,1′-biphenyl]-2-carboxylic acid]
17 | ++ | O=C(NCCc1ccccc1)c1ccc2c(c1)OCCN2Cc1ccc(-c2ccccc2C(=O)O)cc1 [Example 68, 4′-((7-(phenethylcarbamoyl)-2H-benzo[b][1,4]oxazine-4(3H)-yl)methyl)-[1,1′-biphenyl]-2-carboxylic acid]
18 | + | O=C(NCc1ccco1)c1ccc2c(c1)OCCN2Cc1ccc(-c2ccccc2C(=O)O)cc1 [Example 69, 4′-((7-((furan-2-ylmethyl)carbamoyl)-2H-benzo[b][1,4]oxazine-4(3H)-yl)methyl)-[1,1′-biphenyl]-2-carboxylic acid-A]
19 | ++ | C[C@H](NC(=O)c1ccc2c(c1)OCCN2Cc1ccc(-c2ccccc2C(=O)O)cc1)c1cccc2ccccc12 [Example 70, (S)-4′-((7-((1-(naphthalene-1-yl)ethyl)carbamoyl)-2H-benzo[b][1,4]oxazine-4(3H)-yl)methyl)-[1,1′-biphenyl]-2-carboxylic acid]
20 | + | COC(=O)c1ccc(CNC(=O)c2ccc3c(c2)OCCN3Cc2ccc(-c3ccccc3C(=O)O)cc2)cc1 [Example 71, 4′-((7-((4-(methoxycarbonyl)benzyl)carbamoyl)-2H-benzo[b][1,4]oxazine-4(3H)-yl)methyl)-[1,1′-biphenyl]-2-carboxylic acid]
21 | + | COc1cccc(CNC(=O)c2ccc3c(c2)OCCN3Cc2ccc(-c3ccccc3C(=O)O)cc2)c1 [Example 72, 4′-((7-((3-methoxybenzyl)carbamoyl)-2H-benzo[b][1,4]oxazine-4(3H)-yl)methyl)-[1,1′-biphenyl]-2-carboxylic acid]
22 | + | O=C(NCc1ccc(Br)cc1)c1ccc2c(c1)OCCN2Cc1ccc(-c2ccccc2C(=O)O)cc1 [Example 73, 4′-((7-((4-bromobenzyl)carbamoyl)-2H-benzo[b][1,4]oxazine-4(3H)-yl)methyl)-[1,1′-biphenyl]-2-carboxylic acid]
